In test [1] the test system is S. pneumoniae ATCC 6301. As to the kind of experiment: microdilution assay MIC, S. pneumoniae ATCC 6301. The test is classed as cell-based, Streptococcus pneumoniae. The settings on record: S. pneumoniae ATCC 6301, erythromycin sensitive strain; average where multiple assays. How it is done: (§1) In Table B, in some instances multiple assays were performed for a compound/strain combination, in which case the reported MIC is the average. S. pneumoniae ATCC 6301, ATCC 700671, and ATCC 49619 and S. aureus ATCC 6538p and ATCC 29213 are erythromycin sensitive strains.

Test [2] has as its system S. pneumoniae ATCC 700671. Briefly: microdilution assay MIC, S. pneumoniae ATCC 700671. The class given is cell-based, Streptococcus pneumoniae. The settings on record: S. pneumoniae ATCC 700671, erythromycin sensitive strain; average where multiple assays. How it is done:
as §1

Test [3] has as its system S. pneumoniae ATCC 700676. Briefly: microdilution assay MIC, S. pneumoniae ATCC 700676. The test is classed as cell-based, Streptococcus pneumoniae. To be noted: S. pneumoniae ATCC 700676, erythromycin A resistant strain; average where multiple assays. How it is done:
as §1

Test [4] concerns S. pneumoniae ATCC 700677. As to the kind of experiment: microdilution assay MIC, S. pneumoniae ATCC 700677. The settings on record: S. pneumoniae ATCC 700677, erythromycin A resistant strain; average where multiple assays. The test is classed as cell-based, Streptococcus pneumoniae. How it is done:
as §1

Test [5] has as its system S. pneumoniae ATCC 700905. As to the kind of experiment: microdilution assay MIC, S. pneumoniae ATCC 700905. The test is classed as cell-based, Streptococcus pneumoniae. To be noted: S. pneumoniae ATCC 700905, erythromycin A resistant strain; average where multiple assays. As to the method: as §1
Test [6] has as its system S. pneumoniae ATCC 700906. Briefly: microdilution assay MIC, S. pneumoniae ATCC 700906. The test is classed as cell-based, Streptococcus pneumoniae. To be noted: S. pneumoniae ATCC 700906, erythromycin A resistant strain; average where multiple assays. As to the method:
(§2) In Table B, in some instances multiple assays were performed for a compound/strain combination, in which case the reported MIC is the average.

The test system of test [7] is S. pneumoniae ATCC 49619. Briefly: microdilution assay MIC, S. pneumoniae ATCC 49619. The test is classed as cell-based, Streptococcus pneumoniae. The settings on record: S. pneumoniae ATCC 49619, erythromycin sensitive strain; average where multiple assays. As to the method: as §1
Test [8] relates to H. influenzae ATCC 9006. Briefly: microdilution assay MIC, H. influenzae ATCC 9006. The class given is cell-based, Haemophilus influenzae. To be noted: average where multiple assays. How it is done:
as §1

For test [9], the system named is H. influenzae ATCC 49766. As to the kind of experiment: microdilution assay MIC, H. influenzae ATCC 49766. The test is classed as cell-based, Haemophilus influenzae. To be noted: average where multiple assays. As to the method: as §1
For test [10], the system named is S. aureus ATCC 6538p. As to the kind of experiment: microdilution assay MIC, S. aureus ATCC 6538p. The class given is cell-based, Staphylococcus aureus. To be noted: erythromycin sensitive strain, average where multiple assays. As to the method:
as §1

Test [11] relates to S. aureus ATCC 29213. Briefly: microdilution assay MIC, S. aureus ATCC 29213. The class given is cell-based, Staphylococcus aureus. To be noted: S. aureus ATCC 29213, erythromycin sensitive strain; average where multiple assays. How it is done: as §1
For test [12], the system named is S. epidermidis ATCC 12228. Briefly: microdilution assay MIC, S. epidermidis ATCC 12228. To be noted: average where multiple assays. The class given is cell-based, Staphylococcus epidermidis. How it is done:
as §1

For test [13], the system named is S. aureus ATCC 14154. As to the kind of experiment: microdilution assay MIC, S. aureus ATCC 14154. The class given is cell-based, Staphylococcus aureus. To be noted: S. aureus ATCC 14154, erythromycin A resistant strain; average where multiple assays. How it is done: as §2

`COC1(C)CC(C)C(=O)C(C)C2NC(=O)OC2(C)C(CCN2CCCCC2)OC(=O)C(C)C(=O)C(C)C1OC1OC(C)CC(N(C)C)C1O` (centres unmarked) [Compound 102]: the MIC was 0.098 µg/mL in test [1]; 3.12 µg/mL in [2]; 0.78 µg/mL in test [3]; over 12.5 µg/mL in test [4]; 0.098 µg/mL in test [5]; over 12.5 µg/mL in [6]. In addition, the MIC in [7] came to 0.2 µg/mL; in [8], 3.12 µg/mL; in test [9] it was 6.25 µg/mL.
For `COC1(C)CC(C)C(=O)C(C)C2NC(=O)OC2(C)C(CCNC(=O)Oc2cccc(-c3ccccc3)c2)OC(=O)C(C)C(=O)C(C)C1OC1OC(C)CC(N(C)C)C1O` (centres unmarked) [Compound 111], the MIC in test [1], in [2], in test [3], in test [4], in [5] and in test [6] was 0.025 µg/mL throughout. Besides, the figures for the MIC in test [7], in test [8] and in test [9] were 0.049 µg/mL, 1.56 µg/mL and 1.56 µg/mL, respectively.
`COC1(C)CC(C)C(=O)C(C)C2NC(=O)OC2(C)C(CCNC(=O)Oc2ccc(F)cc2)OC(=O)C(C)C(=O)C(C)C1OC1OC(C)CC(N(C)C)C1O` (centres unmarked) [Compound 116]: the MIC in [1] came out at 0.025 µg/mL; in test [2] it was 0.025 µg/mL; in test [3] it was 0.025 µg/mL; in [4] it was 0.39 µg/mL; in test [5], 0.025 µg/mL; in test [6], 0.098 µg/mL. For the same compound, the results for the MIC in [7], in test [8] and in [9] were 0.049 µg/mL, 3.12 µg/mL and 6.25 µg/mL, respectively.
For the compound `COC1(C)CC(C)C(=O)C(C)C2NC(=O)OC2(C)C(CCNC(=O)OCC(C)C)OC(=O)C(C)C(=O)C(C)C1OC1OC(C)CC(N(C)C)C1O` (centres unmarked) [Compound 117], the MIC in test [1] is 0.025 µg/mL; in test [2] it was 0.098 µg/mL; in test [3], 0.025 µg/mL; in [4] it was over 12.5 µg/mL; in test [5], 0.025 µg/mL; in test [6], over 12.5 µg/mL. Moreover, the values for the MIC in test [7], in [8] and in test [9] were 0.025 µg/mL, 6.25 µg/mL and 6.25 µg/mL, respectively.
For the compound `CC[C@H]1OC(=O)[C@H](C)[C@@H](O[C@H]2C[C@@](C)(OC)[C@@H](O)[C@H](C)O2)[C@H](C)[C@@H](O[C@@H]2O[C@H](C)C[C@H](N(C)C)[C@H]2O)[C@](C)(O)C[C@@H](C)C(=O)[C@H](C)[C@@H](O)[C@]1(C)O` [Ery A, erythromycin A, reference compound], the MIC in test [10] worked out at 0.098 µg/mL; in [11], 0.20 µg/mL; in test [1], 0.025 µg/mL; in [2], 0.049 µg/mL; in [3] it was 6.25 µg/mL; in test [4] it was 6.25 µg/mL. Moreover, the MIC in test [5] amounted to 3.12 µg/mL; in [7], 0.049 µg/mL; in test [12] it was 0.20 µg/mL; in test [8], 1.56 µg/mL; in [9], 6.25 µg/mL.
With `COC1(C)CC(C)C(=O)C(C)C2NC(=O)OC2(C)C(CCNC(=O)Oc2cccc3ccccc23)OC(=O)C(C)C(=O)C(C)C1OC1OC(C)CC(N(C)C)C1O` (centres unmarked) [Compound 114], the MIC in test [10] amounted to 0.025 µg/mL; in test [13], 0.025 µg/mL; in test [1], 0.025 µg/mL; in test [2], 0.025 µg/mL; in test [3], 0.098 µg/mL; in test [4], 0.049 µg/mL. Also, the MIC was 0.025 µg/mL in test [5], 6.25 µg/mL in test [6], 0.049 µg/mL in [7] and 3.12 µg/mL in test [9].
As for `COC1(C)CC(C)C(=O)C(C)C2NC(=O)OC2(C)C(CCNC(=O)Oc2ccc3ccccc3c2)OC(=O)C(C)C(=O)C(C)C1OC1OC(C)CC(N(C)C)C1O` (centres unmarked) [Compound 113], the MIC in test [1], in test [2], in test [3], in test [4], in test [5] and in test [6] was 0.025 µg/mL throughout. The MIC in test [7] was 0.025 µg/mL; in test [8], 1.56 µg/mL; in [9], 1.56 µg/mL.
`COC1(C)CC(C)C(=O)C(C)C2NC(=O)OC2(C)C(CCNC(=O)Oc2cccc(-c3ccncc3)c2)OC(=O)C(C)C(=O)C(C)C1OC1OC(C)CC(N(C)C)C1O` (centres unmarked) [Compound 110]: the MIC in [1] stood at 0.025 µg/mL; in [2], 0.025 µg/mL; in [3], 0.025 µg/mL; in [4], 0.025 µg/mL; in test [5], 0.025 µg/mL; in test [6], 0.049 µg/mL. In addition, the results for the MIC in [7], in test [8] and in test [9] were 0.025 µg/mL, 1.56 µg/mL and 3.12 µg/mL, respectively.
In the case of `COC1(C)CC(C)C(=O)C(C)C2NC(=O)OC2(C)C(CCNC(=O)Oc2cccc(-c3cccnc3)c2)OC(=O)C(C)C(=O)C(C)C1OC1OC(C)CC(N(C)C)C1O` (centres unmarked) [Compound 109], the MIC in test [1], in test [2], in test [3], in test [4], in test [5] and in test [6] was 0.025 µg/mL throughout. Besides, the MIC in [7] was 0.025 µg/mL; in test [8] it was 1.56 µg/mL; in test [9], 1.56 µg/mL.
As for `COC(=O)NCCC1OC(=O)C(C)C(=O)C(C)C(OC2OC(C)CC(N(C)C)C2O)C(C)(OC)CC(C)C(=O)C(C)C2NC(=O)OC12C` (centres unmarked) [Compound 118], the MIC came out at 0.49 µg/mL in test [10]; 0.39 µg/mL in [13]; 0.025 µg/mL in test [1]; 0.049 µg/mL in [2]; 0.098 µg/mL in test [3]; 0.39 µg/mL in [4]. Moreover, the MIC in test [5] is 0.98 µg/mL; in test [6] it was over 12.5 µg/mL; in [7] it was 0.049 µg/mL; in test [8], 6.25 µg/mL; in [9] it was 3.12 µg/mL.
As to `COC1(C)CC(C)C(=O)C(C)C2NC(=O)OC2(C)C(CCNC(=O)OCC2c3ccccc3-c3ccccc32)OC(=O)C(C)C(=O)C(C)C1OC1OC(C)CC(N(C)C)C1O` (centres unmarked) [Compound 115], the MIC in [1], in test [2], in [3], in [4], in test [5] and in [6] was 0.025 µg/mL throughout. Also, the MIC amounted to 0.025 µg/mL in [7], 0.78 µg/mL in test [8] and 1.56 µg/mL in test [9].
Turning to `COC1(C)CC(C)C(=O)C(C)C2NC(=O)OC2(C)C(CCNC(=O)Oc2ccc(-c3ccccc3)cc2)OC(=O)C(C)C(=O)C(C)C1OC1OC(C)CC(N(C)C)C1O` (centres unmarked) [Compound 112], the MIC was found to be 0.025 µg/mL in [1]; 0.025 µg/mL in test [2]; 0.025 µg/mL in test [3]; 0.78 µg/mL in [4]; 0.025 µg/mL in [5]; 0.049 µg/mL in test [6]. Also, the MIC in test [7] was found to be 0.049 µg/mL; in test [8] it was 3.12 µg/mL; in test [9], 6.25 µg/mL.
For the compound `COC1(C)CC(C)C(=O)C(C)C2NC(=O)OC2(C)C(CCNC(=O)Nc2cccc3ccccc23)OC(=O)C(C)C(=O)C(C)C1OC1OC(C)CC(N(C)C)C1O` (centres unmarked) [Compound 119], the MIC in test [1] came out at 0.025 µg/mL; in test [2] it was 0.049 µg/mL; in test [3] it was 0.049 µg/mL; in test [4] it was 0.78 µg/mL; in [5] it was 0.025 µg/mL; in test [6], 0.098 µg/mL. Moreover, the MIC in test [7] is 0.025 µg/mL; in test [8], 6.25 µg/mL; in test [9], 3.12 µg/mL.

The values are drawn from patent publication US8063021B2, “Ketolide anti-infective compounds” (Kosan Biosciences Incorporated, priority 2003, dated 2011).
